Tests used:
CYP2C19 = system: T1, CYP2C19; test: CYP2C19 assay ((S)‐mephenytoin hydroxylation), CypExpress human kit; assay type: biochemical; settings: probe (S)‐mephenytoin, 20 μM flavonoid, 5 μM substrate, read-out: inhibitory action on CYP2C19‐mediated (S)‐mephenytoin hydroxylation
T1 construct: purchased Merck (Darmstadt, Germany)
Experimental: The isocratic elution was carried out with sodium acetate buffer (6.9 mM, pH 4) and acetonitrile (72:28 v/v%) as the mobile phase. (S)‐Mephenytoin and 4‐hydroxymephenytoin were detected at 230 nm.

OATP2B1 = system: OATP2B1; design: method as in PMID 37252098, PMID 28745105; settings: cited from earlier work
OATP1B1 = settings: cited from earlier work
[1] = cited from earlier work

| SMILES | inhibition at 20 μM (CYP2C19) [%] | inhibitory effects on OATP2B1‐dependent transport of 4′,5′‐dibromofluorescein and estrone 3‐sulfate (OATP2B1) | decrease in the OATP1B1‐mediated transport of dehydroepiandrosterone sulfate and fluvastatin (OATP1B1; 50 μM MYR) | IC50 (OATP1B1; read-out: IC50, OATP1B1, 2′,7′‐dichlorofluorescein uptake) [µM] | effect on plasma levels of tolbutamide (CYP2C9 substrate) and midazolam (CYP3A4 substrate) ([1]; rat experiment) | effect of peroral co‐administration on docetaxel pharmacokinetics ([1]; rat study) |
| --- | --- | --- | --- | --- | --- | --- |
| O=C1c2c(O)cc(O)cc2O[C@H](c2cc(O)c(O)c(O)c2)[C@H]1O [AMP, ampelopsin] | 5 | – | – | – | – | – |
| O=c1c(O)c(-c2cc(O)c(O)c(O)c2)oc2cc(O)cc(O)c12 [MYR, myricetin] | – | only weak inhibitory effects | approximately 35% | 5.8 | increased the plasma levels of tolbutamide | increased the oral bioavailability and peak plasma concentration of the drug |

— publication PMC11440035, “Interaction of myricetin, ampelopsin (dihydromyricetin), and their sulfate metabolites with serum albumin, cytochrome P450 (CYP2C9, 2C19, and 3A4) enzymes, and organic anion‐transporting polypeptides (OATP1B1 and OATP2B1)” (Pharmacology Research & Perspectives, 2024)
